Each structure is given as a SMILES string. Where two headings read alike, the source gives them in different places.

The assay concerns HCV replicon. Briefly: microbe, parasite or virus in culture. It is filed as cell-based.
The mark [1] stands for this setting: Replicon IC50 values are determined by firefly luciferase signal, bicistronic replicon, 2 days, read-out: Replicon IC5Os.
Setting [2] is: Hepatitis C virus, 48 h, read-out: Replicon IC5Os μM.
Where [3] appears, read: Hepatitis C virus, 48 h, read-out: Replicon IC5Os.

Regarding `CCn1c(C#Cc2ccc(Cl)cc2)c(C#N)c2ccc(O)cc21` [Compound 187], the IC50 under setting [1] lay in the range of 0.5 to 2 µM.
`CCn1c(-c2ccc(NS(=O)(=O)CC)cc2)c(C#N)c2ccc(O)cc21` [Compound 190]: the IC50 under setting [1] is 0.5 to 2 µM.
In the case of `CCn1c(-c2ccc(N(C)S(C)(=O)=O)cc2)c(C#N)c2ccc(O)cc21` [Compound 191], the IC50 under setting [1] is over 2 µM.
The same measure, in the same setting: under `CCn1c(C#Cc2ccc(NC(=O)C3CCCC3)cc2)c(C#N)c2ccc(O)cc21` [Compound 195] stands 0.5 to 2 µM; under `CCn1c(C#Cc2ccc(OC)cc2)c(C#N)c2ccc(C(F)(F)F)cc21` [Compound 199], over 2 µM; under `CCn1c(C#Cc2cccc(OC)c2)c(C#N)c2ccc(C(F)(F)F)cc21` [Compound 202], 0.5 to 2 µM.
For the compound `CCn1c(NC(C)=O)c(C#N)c2ccc(OC)cc21` [Compound 203], under setting [1], the IC50 was in the range of 0.5 to 2 µM.
Take `CCn1c(NC(=O)c2ccccc2)c(C#N)c2ccc(OC)cc21` [Compound 204]: the IC50 under setting [2] is under 0.5 µM.
Turning to `CCn1c(C#Cc2cccc(NS(C)(=O)=O)c2)c(C#N)c2ccc(OC)cc21` [Compound 208], under setting [1], the IC50 lay within 0.5 to 2 µM.
Consider `CCn1c(C#Cc2cccc(NS(=O)(=O)C(C)C)c2)c(C#N)c2ccc(OC)cc21` [Compound 210], for which, under setting [1], the IC50 is 0.5 to 2 µM.
The same measure, in the same setting: under `CCn1c(C#Cc2cccc(NC(=O)C(C)(C)C)c2)c(C#N)c2ccc(OC)cc21` [Compound 212] stands 0.5 to 2 µM.
On the same count and under the same terms, then `CCn1c(NC(=O)c2cccc(F)c2)c(C#N)c2ccc(OC)cc21` [Compound 214], with under 0.5 µM; and `CCn1c(NC(=O)c2ccc(C#N)cc2)c(C#N)c2ccc(OC)cc21` [Compound 215], with 0.5 to 2 µM.
On the same count and under the same terms, under `CCn1c(C#Cc2cccc(N3CCNC3=O)c2)c(C#N)c2ccc(OC)cc21` [Compound 222] stands 0.5 to 2 µM; under `CCn1c(C#Cc2ccc(N)cc2)c(C#N)c2cc(OC)ccc21` [Compound 223], 0.5 to 2 µM; under `CCn1c(C#Cc2ccc(NC(C)=O)cc2)c(C#N)c2cc(OC)ccc21` [Compound 224], 0.5 to 2 µM.
For the compound `CCC(=O)Nc1ccc(C#Cc2c(C#N)c3cc(OC)ccc3n2CC)cc1` [Compound 225], the IC50 under setting [1] was 0.5 to 2 µM.
With `CCn1c(C#Cc2ccc(NC(=O)COC)cc2)c(C#N)c2cc(OC)ccc21` [Compound 228], under setting [1], the IC50 was over 2 µM.
For the compound `CCOc1ccc(-c2c(C#N)c3cc(OC)ccc3n2CC)cc1` [Compound 229], the IC50 under setting [1] is over 2 µM.
On to `COc1ccc2c(C#N)c(C#Cc3cccc4ccccc34)[nH]c2c1` [Compound 230], for which the IC50 under setting [1] was over 2 µM.
Take `COc1ccc2c(C#N)c(C#Cc3cccc(O)c3)[nH]c2c1` [Compound 231]: under setting [1], the IC50 is over 2 µM.
Still for that read-out and setting: under `COc1ccc2c(C#N)c(C#Cc3cccc(Cl)c3)[nH]c2c1` [Compound 232] stands over 2 µM.
The same measure, in the same setting: then `COc1ccc2c(C#N)c(C#Cc3ccc(N)cc3)[nH]c2c1` [Compound 234], with over 2 µM; and `COc1ccc2c(C#N)c(C#Cc3ccc(N(C)C)cc3)[nH]c2c1` [Compound 235], with 0.5 to 2 µM; and `COc1ccc2c(C#N)c(C#Cc3ccc(C)cc3)[nH]c2c1` [Compound 236], with over 2 µM.
Still for that read-out and setting: then `COc1cccc(C#Cc2[nH]c3cc(OC)ccc3c2C#N)c1` [Compound 237], with over 2 µM; and `COc1ccc2c(C#N)c(C#Cc3ccccc3)[nH]c2c1` [Compound 238], with over 2 µM; and `CCn1c(-c2ccc(N)cc2)c(C#N)c2cc(OC)ccc21` [Compound 239], with over 2 µM.
For `CCn1c(-c2ccc(C(=O)OC)cc2)c(C#N)c2cc(OC)ccc21` [Compound 240], the IC50 under setting [1] is over 2 µM.
`CCn1c(-c2ccc(NC(C)=O)cc2)c(C#N)c2cc(OC)ccc21` [Compound 242]: under setting [1], the IC50 was over 2 µM.
Same read-out and setting: under `CCn1c(-c2ccc(C(=O)N3CCCC3)cc2)c(C#N)c2cc(OC)ccc21` [Compound 246] stands over 2 µM; under `CCn1c(-c2ccc(O)cc2)c(C#N)c2ccc(OC)cc21` [Compound 247], over 2 µM.
On the same count and under the same terms, then `CCn1c(-c2ccc(OCCO)cc2)c(C#N)c2ccc(OC)cc21` [Compound 249], with 0.5 to 2 µM.
On the same count and under the same terms, then `CCn1c(-c2ccc(SC)cc2)c(C#N)c2ccc(OC)cc21` [Compound 250], with over 2 µM.
`COc1ccc2c(C#N)c(-c3ccc4c(c3)OCO4)n(C)c2c1` [Compound 254]: the IC50 under setting [1] is over 2 µM.
`CCn1c(-c2ccc(O)cc2)c(C#N)c2ccc(C(F)(F)F)cc21` [Compound 256]: the IC50 under setting [1] is over 2 µM.
The same measure, in the same setting: then `CCn1c(-c2ccc(N)cc2)c(C#N)c2ccc(C(F)(F)F)cc21` [Compound 257], with over 2 µM.
As for `CCn1c(-c2cccc(N)c2)c(C#N)c2ccc(C(F)(F)F)cc21` [Compound 258], the IC50 under setting [1] is over 2 µM.
Same read-out and setting: then `CCn1c(-c2ccc(N(C)C)cc2)c(C#N)c2ccc(C(F)(F)F)cc21` [Compound 259], with over 2 µM; and `CCn1c(-c2ccc3c(c2)OCO3)c(C#N)c2ccc(C(F)(F)F)cc21` [Compound 260], with over 2 µM.
Same read-out and setting: under `CCn1c(-c2ccc(OCCN3CCN(C)CC3)cc2)c(C#N)c2ccc(OC)cc21` [Compound 263] stands 0.5 to 2 µM.
For `CCn1c(-c2ccc(OCCN3CC[C@H](O)C3)cc2)c(C#N)c2ccc(OC)cc21` [Compound 264], the IC50 under setting [2] was 0.5 to 2 µM.
Regarding `CCOc1ccc2c(C#N)c(-c3ccc(C(=O)N4CCOCC4)cc3)n(CC)c2c1` [Compound 270], the IC50 under setting [1] was over 2 µM.
In the case of `CCn1c(-c2ccc(C(=O)N3CCOCC3)cc2)c(C#N)c2ccc(OC(C)C)cc21` [Compound 271], the IC50 under setting [1] lay in the range of 0.5 to 2 µM.
Still for that read-out and setting: under `CCn1c(-c2ccc(NS(=O)(=O)C3CC3)cc2)c(C#N)c2ccc(OC)cc21` [Compound 272] stands 0.5 to 2 µM; under `CCn1c(-c2ccc(NS(=O)(=O)CCl)cc2)c(C#N)c2ccc(OC)cc21` [Compound 273], over 2 µM.
Still for that read-out and setting: then `CCn1c(-c2ccc(S(=O)(=O)N(C)C)cc2)c(C#N)c2ccc(OC)cc21` [Compound 275], with over 2 µM; and `CCn1c(-c2ccc(S(=O)(=O)N3CCOCC3)cc2)c(C#N)c2ccc(OC)cc21` [Compound 276], with over 2 µM; and `CCn1c(-c2ccc(S(=O)(=O)NC)cc2)c(C#N)c2ccc(OC)cc21` [Compound 277], with over 2 µM.
Same read-out and setting: then `CCn1c(-c2ccc(S(N)(=O)=O)cc2)c(C#N)c2ccc(OC)cc21` [Compound 278], with over 2 µM; and `CCn1c(-c2cc3ccccc3o2)c(C#N)c2ccc(OC)cc21` [Compound 282], with over 2 µM; and `CCn1c(-c2ccc(-c3ccccc3)cc2)c(C#N)c2ccc(OC)cc21` [Compound 283], with over 2 µM.
As to `CCn1c(-c2cc3ccccc3s2)c(C#N)c2ccc(OC)cc21` [Compound 286], under setting [1], the IC50 fell in the range of 0.5 to 2 µM.
On the same count and under the same terms, under `CCn1c(-c2cccc(NS(=O)(=O)CC)c2)c(C#N)c2ccc(OC)cc21` [Compound 287] stands over 2 µM; under `CCn1c(-c2cccc(NS(=O)(=O)CCCCl)c2)c(C#N)c2ccc(OC)cc21` [Compound 289], over 2 µM.
Still for that read-out and setting: under `CCn1c(-c2cccc(C(=O)NCCN3CCOCC3)c2)c(C#N)c2ccc(OC)cc21` [Compound 290] stands over 2 µM.
On the same count and under the same terms, under `CCn1c(-c2cccc(C(N)=O)c2)c(C#N)c2ccc(OC)cc21` [Compound 291] stands over 2 µM.
`CCNC(=O)c1cccc(-c2c(C#N)c3ccc(OC)cc3n2CC)c1` [Compound 292]: under setting [1], the IC50 was over 2 µM.
Same read-out and setting: then `CCn1c(-c2cccc(NC(=O)Oc3ccccc3)c2)c(C#N)c2ccc(OC)cc21` [Compound 293], with over 2 µM.
Take `CCOC(=O)Nc1cccc(-c2c(C#N)c3ccc(OC)cc3n2CC)c1` [Compound 294]: the IC50 under setting [3] is under 0.5 µM.
Same read-out and setting: under `CCn1c(-c2cccc(NC(=O)OCC(C)C)c2)c(C#N)c2ccc(OC)cc21` [Compound 296] stands 0.5 to 2 µM; under `CCCOC(=O)Nc1cccc(-c2c(C#N)c3ccc(OC)cc3n2CC)c1` [Compound 297], 0.5 to 2 µM.
On the same count and under the same terms, then `CCn1c(-c2cccc(NC(=O)OCCOC)c2)c(C#N)c2ccc(OC)cc21` [Compound 298], with 0.5 to 2 µM; and `C=CCOC(=O)Nc1cccc(-c2c(C#N)c3ccc(OC)cc3n2CC)c1` [Compound 299], with 0.5 to 2 µM.
For `CCCCOC(=O)Nc1cccc(-c2c(C#N)c3ccc(OC)cc3n2CC)c1` [Compound 300], the IC50 under setting [1] fell in the range of 0.5 to 2 µM.
On to `CCn1c(-c2cccc(NC(=O)OCCCCl)c2)c(C#N)c2ccc(OC)cc21` [Compound 301], for which the IC50 under setting [3] lay in the range of 0.5 to 2 µM.
Same read-out and setting: under `CCn1c(-c2cccc(NC(=O)OCCF)c2)c(C#N)c2ccc(OC)cc21` [Compound 302] stands 0.5 to 2 µM.
Same read-out and setting: then `CCn1c(-c2cccc(NC(=O)OCc3ccccc3)c2)c(C#N)c2ccc(OC)cc21` [Compound 304], with 0.5 to 2 µM.
For the compound `CCn1c(-c2cccc(NC(=O)Oc3ccc(OC)cc3)c2)c(C#N)c2ccc(OC)cc21` [Compound 305], the IC50 under setting [1] was over 2 µM.
In the case of `CCn1c(-c2cccc(NC(=O)Oc3ccc(Cl)cc3)c2)c(C#N)c2ccc(OC)cc21` [Compound 306], under setting [3], the IC50 lay in the range of 0.5 to 2 µM.
As to `CCn1c(-c2cccc(NC(=O)Oc3ccc(F)cc3)c2)c(C#N)c2ccc(OC)cc21` [Compound 307], the IC50 under setting [1] fell in the range of 0.5 to 2 µM.
As to `CCn1c(-c2cccc(NC(=O)Oc3ccc(Br)cc3)c2)c(C#N)c2ccc(OC)cc21` [Compound 309], under setting [3], the IC50 was in the range of 0.5 to 2 µM.
On the same count and under the same terms, then `CCn1c(-c2cccc(NC(=O)OC(C)C)c2)c(C#N)c2ccc(OC)cc21` [Compound 310], with 0.5 to 2 µM.
As for `CCn1c(-c2ccc(NC(=O)OCC(C)C)cc2)c(C#N)c2ccc(OC)cc21` [Compound 311], the IC50 under setting [1] was over 2 µM.
Still for that read-out and setting: then `CCCOC(=O)Nc1ccc(-c2c(C#N)c3ccc(OC)cc3n2CC)cc1` [Compound 312], with over 2 µM.
The same measure, in the same setting: under `CCn1c(-c2ccc(NC(=O)OCCOC)cc2)c(C#N)c2ccc(OC)cc21` [Compound 313] stands over 2 µM.
Still for that read-out and setting: then `C=CCOC(=O)Nc1ccc(-c2c(C#N)c3ccc(OC)cc3n2CC)cc1` [Compound 314], with over 2 µM; and `CCn1c(-c2ccc(NC(=O)OCCCCl)cc2)c(C#N)c2ccc(OC)cc21` [Compound 315], with over 2 µM.

Source of the values: patent US8013006B2.
